The values that follow come from ChEMBL document CHEMBL1201862, “PubChem BioAssay data set” (2004).

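Growth conditions: 96-well plates. Treatment: test compound, 48 hours, 5 concentrations. Analysis: linear interpolation between bracketing concentrations; unreached endpoints set to highest concentration. Here, GI50 denotes the concentration required for 50% inhibition of growth.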 Calls of active or inactive are those of the source. No stated cut-off is given here; in the data, active = GI50 up to about 1.1 µM and inactive = higher.

What all share (experiment): inhibition of tumour cell growth, NCI panel, 48 h
Test [1] has as its system 786-0.
The subject of test [2] is A549.
Test [3] has as its system ACHN.
Test [4] relates to CCRF-CEM.
Test [5] concerns HCT-116.
The subject of test [6] is HL-60.
Test [7] concerns IGROV-1.
For test [8], the system named is NCI-H460.
In test [9] the test system is OVCAR-8.
Test [10] has as its system SF-268.
Test [11] deals with SK-MEL-28.
Test [12] deals with SK-OV-3.
Test [13] has as its system SN12C.
For test [14], the system named is U-251.
Test [15] has as its system HCT-15.
Test [16] has as its system OVCAR-5.

In the case of `COc1ccc(C2COc3c(ccc(OC)c3OC)C2=O)cc1OC` (stereo unspecified), the GI50 in test [1], in test [2], in test [3], in test [4], in test [5] and in test [6] was > 100 µM (inactive) each time. For the same compound, the GI50 in [7], in test [8], in [9], in [10], in [11] and in test [12] was > 100 µM (inactive) throughout. Further, the GI50 in [13] and in test [14] was > 100 µM (inactive) throughout.

As to `O=C1C(c2ccccc2)=C(c2ccccc2)C(c2ccc(-c3ccc(C4=C(c5ccccc5)C(=O)C(c5ccccc5)=C4c4ccccc4)cc3)cc2)=C1c1ccccc1`, the GI50 in [1] was > 100 µM (inactive); in test [2], > 100 µM (inactive); in test [4] it was > 100 µM (inactive); in [5], > 100 µM (inactive); in [15] it was > 100 µM; in test [6], > 100 µM (inactive). In addition, the GI50 in test [7], in [8], in test [16], in test [9], in test [10] and in test [12] was > 100 µM (inactive) each time. The GI50 in [13] and in test [14] was > 100 µM (inactive) in each case.

Regarding `CCOC(=O)[C@@]12C(C)=CC(=O)O[C@]1(C)C[C@H]2C#N`, the GI50 was > 100 µM (inactive) in test [1]; > 100 µM (inactive) in [2]; > 100 µM (inactive) in test [3]; > 100 µM (inactive) in test [4]; > 100 µM (inactive) in test [5]; > 100 µM in [15]. In addition, the GI50 in test [6], in test [7], in test [8], in test [9], in [10] and in test [11] was > 100 µM (inactive) each time. The GI50 in test [12], in [13] and in test [14] was > 100 µM (inactive) each time.

As to `C[C@]12CCC(=O)C=C1CC[C@@H]1C2CC[C@]2(C)Nc3[nH]ncc3CC12` (stereo partly specified), the GI50 is > 100 µM (inactive) in [1]; > 100 µM (inactive) in [2]; > 100 µM (inactive) in test [3]; > 100 µM (inactive) in [4]; > 100 µM (inactive) in [5]; > 100 µM in [15]. Also, the GI50 in test [6], in test [7], in test [8], in [16], in test [9] and in test [11] was > 100 µM (inactive) each time. For the same compound, the GI50 in test [12] and in test [14] was > 100 µM (inactive) in each case.

Turning to `O=C(CCC(=O)Nc1cccc(Cl)c1)CC(=O)c1ccc(Cl)cc1`, the GI50 in test [1] was > 100 µM (inactive); in test [2], > 100 µM (inactive); in test [3], > 100 µM (inactive); in test [5] it was > 100 µM (inactive); in test [15] it was > 100 µM; in [6], > 100 µM (inactive). Moreover, the GI50 in [7], in test [8], in [16], in test [9], in test [10] and in test [11] was > 100 µM (inactive) in each case. Also, the GI50 in test [12] and in test [13] was > 100 µM (inactive) each time.
